The text below walks through data of publication PMC9739877, “Discovery and Mechanistic Investigation of Piperazinone Phenylalanine Derivatives with Terminal Indole or Benzene Ring as Novel HIV-1 Capsid Modulators” (Molecules, 2022).

SMILES strings stand for the structures.

The subject of data set [1] is HIV-1 (IIIB). As to the kind of experiment: microbe, parasite or virus in culture. The class given is cell-based. To be noted: Human immunodeficiency virus 1, MT4, 50% protection against HIV-induced cytotoxicity, MT-4 cells, MTT. The protocol:
(§1) II. In vitro anti-HIV Assay in MT-4 Cells
(§2) Evaluation of the antiviral activity of the compounds against HIV in MT-4 cells was performed using the MTT assay as described below. Stock solutions (10 × final concentration) of test compounds were added in 25 µL volumes to two series of triplicate wells to allow simultaneous evaluation of their effects on mock- and HIV-infected cells at the beginning of each experiment. Serial 5-fold dilutions of test compounds were made directly in flat-bottomed 96-well microtiter trays using a Biomek 3000 robot (Beckman Instruments, Fullerton, CA). Untreated HIV- and mock-infected cell samples were included as controls. HIV stock (50 µL) at 100-300 CCID50 (50 % cell culture infectious doses) or culture medium was added to either the infected or mock-infected wells of the microtiter tray. Mock-infected cells were used to evaluate the effects of the test compound on uninfected cells to assess the test compounds' cytotoxicity. Exponentially growing MT-4 cells were centrifuged for 5 minutes at 220 g, and the supernatant was discarded. […]
(§3) cells/mL, and 50 µL volumes were transferred to the microtiter tray wells. Five days after infection, the viability of mock-and HIV-infected cells was examined spectrophotometrically using the MTT assay. The MTT assay is based on the reduction of yellow colored 3-(4,5-dimethylthiazol-2-yl)-2,5-diphenyltetrazolium bromide (MTT) (Acros Organics) by mitochondrial dehydrogenase activity in metabolically active cells to a blue-purple formazan that can be measured spectrophotometrically. The absorbances were read in an eight-channel computer-controlled photometer (Infinite M1000, Tecan), at two wavelengths (540 and 690 nm). All data were calculated using the median absorbance value of three wells. […]
(§4) was defined as the concentration of the test compound that reduced the absorbance (OD540) of the mock-infected control sample by 50%. The concentration achieving 50% protection against the cytopathic effect of the virus in infected cells was defined as the […]

Data set [2] deals with HIV-2 (ROD). As to the kind of experiment: Anti-HIV-2 (ROD) activity in MT-4 cells, MTT assay. The note with it: Human immunodeficiency virus 2, MT4, 50% protection against HIV-induced cytotoxicity. The class given is cell-based. The protocol:
as §1, §2, §3, §4

Data set [3] deals with MT-4 cells. As to the kind of experiment: Cytotoxicity in mock-infected MT-4 cells, MTT assay. Format: cell-based. To be noted: 50% reduction of viability of mock-infected MT-4 cells. The protocol: (§5) II. In vitro anti-HIV Assay in MT-4 Cells […]
(§6) performed using the MTT assay as described below. Stock solutions (10 × final concentration) of test compounds were added in 25 µL volumes to two series of […]
(§7) infected cells at the beginning of each experiment. Serial 5-fold dilutions of test […]
(§8) Biomek 3000 robot (Beckman Instruments, Fullerton, CA). Untreated HIV- and mock-infected cell samples were included as controls. HIV stock (50 µL) at 100-300 CCID50 […]
(§9) or mock-infected wells of the microtiter tray. Mock-infected cells were used to evaluate […]
(§10) cytotoxicity. Exponentially growing MT-4 cells were centrifuged for 5 minutes at 220 g, and the supernatant was discarded. […]
(§11) cells/mL, and 50 µL volumes were transferred to the microtiter tray wells. Five days […]
(§12) spectrophotometrically using the MTT assay. The MTT assay is based on the reduction […]
(§13) M1000, Tecan), at two wavelengths (540 and 690 nm). All data were calculated using the median absorbance value of three wells.
(§14) (OD540) of the mock-infected control sample by 50%. The concentration achieving 50%
In general terms: Formazan colour is commonly taken as a measure of viable cells.

Assay in data set [4]: as above
The class given is cell-based. To be noted: human, 50% reduction of viability of mock-infected MT-4 cells. The protocol:
as §5, §6, §7, §8, §9, §10, §11, §12, §13, §14

Data set [5] can be described thus: in vitro. To be noted: both, human, plasma.

Usually EC50 stands for the concentration giving half of the maximal effect. Low values mean greater potency, high ones weaker potency. By CC50 is commonly meant the concentration that lowers cell viability or growth by half. Low values mean greater toxicity to the cells, high ones lower toxicity to the cells. Regarding `COc1ccc(N(C)C(=O)[C@H](Cc2ccccc2)NC(=O)CN2CCN(C(=O)Cc3c(C)[nH]c4ccccc34)CC2=O)cc1` [7a, (S)-N-(4-methoxyphenyl)-N-methyl-2-(2-(4-(2-(2-methyl-1H-indol-3-yl)acetyl)-2-oxopiperazin-1-yl)acetamido)-3-phenylpropanamide], the EC50 in data set [1] is 14.3 ± 0.76 µM; in data set [2], 7.74 ± 0.79 µM. This compound had a CC50 in data set [3] of 108 ± 3.26 µM.
The corresponding values for `COc1ccc(N(C)C(=O)[C@H](Cc2ccccc2)NC(=O)CN2CCN(C(=O)Cc3c[nH]c4ccc(OC)cc34)CC2=O)cc1` [7b, (S)-2-(2-(4-(2-(5-methoxy-1H-indol-3-yl)acetyl)-2-oxopiperazin-1-yl)acetamido)-N-(4-methoxyphenyl)-N-methyl-3-phenylpropanamide] are 14.6 ± 0.39 µM, 16.9 ± 3.58 µM and 104 ± 3.37 µM.
The corresponding values for `COc1ccc(N(C)C(=O)[C@H](Cc2ccccc2)NC(=O)CN2CCN(C(=O)Cc3c[nH]c4ccc(Br)cc34)CC2=O)cc1` [7c, (S)-2-(2-(4-(2-(5-bromo-1H-indol-3-yl)acetyl)-2-oxopiperazin-1-yl)acetamido)-N-(4-methoxyphenyl)-N-methyl-3-phenylpropanamide] are above 16.4 µM, above 16.4 µM and 16.4 ± 3.44 µM.
The corresponding values for `COc1ccc(N(C)C(=O)[C@H](Cc2ccccc2)NC(=O)CN2CCN(C(=O)Cc3c[nH]c4ccccc34)CC2=O)cc1` [7d, (S)-2-(2-(4-(2-(1H-indol-3-yl)acetyl)-2-oxopiperazin-1-yl)acetamido)-N-(4-methoxyphenyl)-N-methyl-3-phenylpropanamide] are 15 ± 0.24 µM, 4.89 ± 1.39 µM and 112 ± 3.22 µM.
With `COc1ccc(N(C)C(=O)[C@H](Cc2ccccc2)NC(=O)CN2CCN(C(=O)Cc3c[nH]c4ccc(O)cc34)CC2=O)cc1` [7e, (S)-2-(2-(4-(2-(5-hydroxy-1H-indol-3-yl)acetyl)-2-oxopiperazin-1-yl)acetamido)-N-(4-methoxyphenyl)-N-methyl-3-phenylpropanamide], the results for the EC50 in data set [1] and in data set [2] were 198 ± 9.74 µM and 186 ± 4.42 µM, respectively. The CC50 at 5 days in data set [4] is above 209 µM.
As for `COc1ccc(N(C)C(=O)[C@H](Cc2ccccc2)NC(=O)CN2CCN(C(=O)Cc3c[nH]c4ccc(F)cc34)CC2=O)cc1` [7f, (S)-2-(2-(4-(2-(5-fluoro-1H-indol-3-yl)acetyl)-2-oxopiperazin-1-yl)acetamido)-N-(4-methoxyphenyl)-N-methyl-3-phenylpropanamide], the EC50 is 21.8 ± 4.81 µM in data set [1] and 4.52 ± 0.87 µM in data set [2]. In addition, the CC50 in data set [3] amounted to 90.1 ± 15.7 µM.
On to `COc1ccc(N(C)C(=O)[C@H](Cc2ccccc2)NC(=O)CN2CCN(C(=O)c3ccc(NC(C)=O)cc3)CC2=O)cc1` [7g, (S)-2-(2-(4-(4-acetamidobenzoyl)-2-oxopiperazin-1-yl)acetamido)-N-(4-methoxyphenyl)-N-methyl-3-phenylpropanamide], for which the concentration giving a half-maximal response (EC50) in data set [1] is 203 ± 11 µM; in data set [2], 184 ± 19.3 µM. The CC50 at 5 days in data set [4] was above 213 µM.
For the compound `COc1ccc(N(C)C(=O)[C@H](Cc2ccccc2)NC(=O)CN2CCN(C(=O)c3ccc(NC(=O)C4CC4)cc3)CC2=O)cc1` [7i, (S)-N-(4-(4-(2-((1-((4-methoxyphenyl)(methyl)amino)-1-oxo-3-phenylpropan-2-yl)amino)-2-oxoethyl)-3-oxopiperazine-1-carbonyl)phenyl)cyclopropanecarboxamide], the values for the EC50 in data set [1] and in data set [2] were above 168 µM and 15 ± 2.27 µM, respectively. The compound further yielded a CC50 in data set [3] of 168 ± 19.8 µM.
On to `COc1ccc(N(C)C(=O)[C@H](Cc2cc(F)cc(F)c2)NC(=O)CN2CCN(C(=O)Cc3c(C)[nH]c4ccccc34)CC2=O)cc1` [F2-7a, (S)-3-(3,5-difluorophenyl)-N-(4-methoxyphenyl)-N-methyl-2-(2-(4-(2-(2-methyl-1H-indol-3-yl)acetyl)-2-oxopiperazin-1-yl)acetamido)propenamide], for which the EC50 in data set [1] turned out to be 20.8 ± 5.09 µM; in data set [2] it was 19.7 ± 6.59 µM. Also, the midpoint of cytotoxicity in data set [3], the CC50, lay at 76.9 ± 20 µM.
In the same order, the values of `COc1ccc(N(C)C(=O)[C@H](Cc2cc(F)cc(F)c2)NC(=O)CN2CCN(C(=O)Cc3c[nH]c4ccc(OC)cc34)CC2=O)cc1` [F2-7b, (S)-3-(3,5-difluorophenyl)-2-(2-(4-(2-(5-methoxy-1H-indol-3-yl)acetyl)-2-oxopiperazin-1-yl)acetamido)-N-(4-methoxyphenyl)-N-methylpropanamide] are above 15.9 µM, above 15.9 µM and 15.9 ± 3.83 µM.
`COc1ccc(N(C)C(=O)[C@H](Cc2cc(F)cc(F)c2)NC(=O)CN2CCN(C(=O)Cc3c[nH]c4ccc(Br)cc34)CC2=O)cc1` [F2-7c, (S)-2-(2-(4-(2-(5-bromo-1H-indol-3-yl)acetyl)-2-oxopiperazin-1-yl)acetamido)-3-(3,5-difluorophenyl)-N-(4-methoxyphenyl)-N-methylpropanamide]: the EC50 in data set [1] and in data set [2] was above 3.15 µM each time. The CC50 in data set [3] came out at 3.15 ± 0.4 µM.
As to `COc1ccc(N(C)C(=O)[C@H](Cc2cc(F)cc(F)c2)NC(=O)CN2CCN(C(=O)Cc3c[nH]c4ccccc34)CC2=O)cc1` [F2-7d, (S)-2-(2-(4-(2-(1H-indol-3-yl)acetyl)-2-oxopiperazin-1-yl)acetamido)-3-(3,5-difluorophenyl)-N-(4-methoxyphenyl)-N-methylpropanamide], the EC50 came to 29.4 ± 7.03 µM in data set [1] and 17.6 ± 9.14 µM in data set [2]. For the same compound, the CC50 in data set [3] came out at 57.8 ± 21.8 µM.
As to `COc1ccc(N(C)C(=O)[C@H](Cc2cc(F)cc(F)c2)NC(=O)CN2CCN(C(=O)Cc3c[nH]c4ccc(O)cc34)CC2=O)cc1` [F2-7e, (S)-3-(3,5-difluorophenyl)-2-(2-(4-(2-(5-hydroxy-1H-indol-3-yl)acetyl)-2-oxopiperazin-1-yl)acetamido)-N-(4-methoxyphenyl)-N-methylpropanamide], the results for the half-maximal effective concentration (EC50) in data set [1] and in data set [2] were above 132 µM and at least 49.6 µM, respectively. The CC50 in data set [3] amounted to 132 ± 33 µM.
As for `COc1ccc(N(C)C(=O)[C@H](Cc2cc(F)cc(F)c2)NC(=O)CN2CCN(C(=O)c3ccc(NC(C)=O)cc3)CC2=O)cc1` [F2-7g, (S)-2-(2-(4-(4-acetamidobenzoyl)-2-oxopiperazin-1-yl)acetamido)-3-(3,5-difluorophenyl)-N-(4-methoxyphenyl)-N-methylpropanamide], the EC50 in data set [1] was 177 ± 16.6 µM; in data set [2], 192 ± 4.57 µM. The same compound returned a CC50 in data set [3] of 196 ± 6.8 µM.
In the same order, the values of `COc1ccc(N(C)C(=O)[C@H](Cc2cc(F)cc(F)c2)NC(=O)CN2CCN(C(=O)c3ccc(NC(=O)C4CC4)cc3)CC2=O)cc1` [F2-7i, (S)-N-(4-(4-(2-((3-(3,5-difluorophenyl)-1-((4-methoxyphenyl)(methyl)amino)-1-oxopropan-2-yl)amino)-2-oxoethyl)-3-oxopiperazine-1-carbonyl)phenyl)cyclopropanecarboxamide] are 14.4 ± 1.31 µM, 15.1 ± 0.68 µM and 88.6 ± 11.3 µM.
On to `COc1ccc(N(C)C(=O)[C@H](Cc2cc(F)cc(F)c2)NC(=O)CN2CCN(C(=O)c3ccc(NC(=O)C(F)(F)F)cc3)CC2=O)cc1` [F2-7j, (S)-3-(3,5-difluorophenyl)-N-(4-methoxyphenyl)-N-methyl-2-(2-(2-oxo-4-(4-(2,2,2-trifluoroacetamido)benzoyl)piperazin-1-yl)acetamido)propenamide], for which the EC50 in data set [1] was determined as 13.7 ± 0.7 µM; in data set [2] it was 16.6 ± 6.13 µM. In data set [3], this compound showed a CC50 of 150 ± 25.5 µM.
The half-life is how long it takes for the measured level to halve. The low end stands for fast loss, the high end for slow loss. A word on the share remaining: it is what is left of the initial amount, in per cent. Lower therefore signals more turnover. In data set [5], `Cc1[nH]c2ccccc2c1CC(=O)N[C@@H](Cc1ccccc1)C(=O)N(C)c1ccccc1` [PF74] yielded a half-life at 2 μM above 289 min and a fraction remaining at 0 h, 2 μM of 100%.
Consider `CC(C)[N+](C)(CCOC(=O)C1c2ccccc2Oc2ccccc21)C(C)C` [Propantheline bromide], for which, in data set [5], the half-life at 2 μM is 11.2 min; the amount remaining at 0 h, 2 μM was found to be 100%; the share remaining at 10 min, 2 μM is 56.5%; the fraction remaining at 0.5 h, 2 μM stood at 19.4%. In data set [5], this compound gave a share remaining at 1 h, 2 μM of 1.9% and a share remaining at 2 h, 2 μM of 0.1%.
